Measurements as given in patent publication US20090215725A1, “Substituted 4-aminocyclohexane derivatives” (GRUNENTHAL GMBH, priority 2008, published 2009).

System: Male Sprague Dawley rats
Assay: Chung model: mononeuropathic pain after spinal nerve ligation (mechanical allodynia, von Frey withdrawal threshold)
Format: in vivo
Conditions: rat, FIG. 1

CN(C)C1(c2ccccc2)CCC(COCc2c[nH]c3ccc(F)cc23)CC1 (stereo not drawn) [Example 10, 1-Phenyl-4-(((5-fluoro-1H-indol-3-yl)methoxy)methyl)-N,N-dimethylcyclohexanamine]
effect on the undamaged, contralateral side (contralateral rear paw, tested dose): only a very small and statistically insignificant effect | rise in the withdrawal threshold (ipsilateral rear paw, spinal nerve ligation, allodynia fall from approx. 55 g to 25 g): over 40 g | allodynia condition (effectiveness in neuropathic pain) (ipsilateral side, spinal nerve ligation): almost completely relieved
